US20120208781A1, “AMINOGLYCOSIDE DOSING REGIMENS” (Achaogen, Inc., priority 2009, published 2012)
In brackets after ≈: the same amount, converted by molar mass. Where two headings read alike, the source gives them in different places.

Legend:
[1] = tested on: Enterobacter spp. (EB); test: MIC, broth microdilution, Brooklyn hospital isolates: Enterobacter spp.; format: cell-based; settings: EB (n = 30)
Description: (§1) In another study, the activity of Compound 1 against a collection of contemporary Gram-negative bacteria was determined. Unique patient isolates of P. aeruginosa (PA), A. baumannii (AB), K. pneumoniae (KP), E. coli (EC), and Enterobacter spp. (EB) from prior surveys at 16 Brooklyn, N.Y. hospitals were selected based on resistance patterns. The majority of isolates were fingerprinted by automated ribotyping. MICs were performed by broth microdilution. PCR was used to identify aminoglycoside-modifying enzymes (AMEs) in AB and KP and the KPC gene in Enterobacteriaceae (EN). The expression of the efflux genes mexA, C, E and X in PA, and adeB in AB was assessed by real-time RT-PCR.

[2] = tested on: P. aeruginosa (PA); test: MIC, broth microdilution, Brooklyn hospital isolates: P. aeruginosa; format: cell-based; settings: PA (n = 33)
Description: as §1

[3] = tested on: K. pneumoniae (KP); test: MIC, broth microdilution, Brooklyn hospital isolates: K. pneumoniae; format: cell-based; settings: KP (n = 71)
Description: as §1

[4] = tested on: E. coli (EC); test: MIC, broth microdilution, Brooklyn hospital isolates: E. coli; format: cell-based; settings: EC (n = 32)
Description: as §1

[5] = tested on: A. baumannii (AB); test: MIC, broth microdilution, Brooklyn hospital isolates: A. baumannii; format: cell-based; settings: AB (n = 38)
Description: as §1

[6] = tested on: rat kidney; test: Rat nephrotoxicity model: kidney histopathology (H&E); format: in vivo, Sprague-Dawley rats; settings: rats, 14 d once-daily
Description: This rat nephrotoxicity study design used 14 days of once-daily dosing of aminoglycosides in adult Sprague-Dawley rats. Rats were allowed full access to food and water, and aminoglycosides were dosed subcutaneously at 1 mL/kg dosing volume, formulated in water. Nephrotoxicity was assessed by monitoring changes in serum markers of glomerular filtration rate (GFR), namely blood urea nitrogen (BUN) and serum creatinine. Microscopic examination of kidney slices after fixation and hematoxylin and eosin (H&E) staining was also utilized, scoring for tubular dilation, cellular casts, interstitial inflammation, and regenerative changes to the tubules.

[7] = rat, in vivo
Description: The AGs were administered to the rats according to the dose levels depicted in Table 6. The animals of Groups 11-13 were housed until day 15 even though their dosing ended on day 5, such that all animals were necropsied on the same day. Blood was collected in EDTA at days 0, 6, 11, and 15. 750 uL blood samples were collected and aliquoted into a lithium heparin tube and an EDTA tube. Clinical chemistry analysis was performed using the Idexx VETTEST 8008 system. Kidney samples were embedded in paraffin, sectioned, stained with hematoxylin and eosin and examined microscopically.

## C[C@@H](O)[C@H]1C(=O)N2C(C(=O)O)=C(SCCN=CN)C[C@H]12 [Imipenem]
[1]
  Susceptible: 93%
[1]; Enterobacter
  MIC50: 0.5 µg/mL (≈ 1.67 µM)
  MIC90: 2 µg/mL (≈ 6.68 µM)
[2]
  Susceptible: 55%
[2]; Pseudomonas aeruginosa
  MIC50: 4 µg/mL (≈ 13.4 µM)
  MIC90: > 8 µg/mL
[3]
  Susceptible: 79%
[3]; Klebsiella pneumoniae
  MIC50: 0.25 µg/mL (≈ 0.835 µM)
  MIC90: > 8 µg/mL
[4]
  Susceptible: 91%
[4]; Escherichia coli
  MIC50: 0.125 µg/mL (≈ 0.418 µM)
  MIC90: 4 µg/mL (≈ 13.4 µM)
[5]
  Susceptible: 55%
[5]; Acinetobacter baumannii
  MIC50: 4 µg/mL (≈ 13.4 µM)
  MIC90: > 8 µg/mL

## NC[C@H]1O[C@H](O[C@H]2[C@H](O)[C@@H](O[C@H]3O[C@H](CO)[C@@H](O)[C@H](N)[C@H]3O)[C@H](N)C[C@@H]2N)[C@H](N)C[C@@H]1O [Tobramycin, tobramycin]
[6]; 10 mg/kg
  Histopathology score (0 to 5 Scale): Casts: 0 +/− 0
  Histopathology score (0 to 5 Scale): Dilation: 0.4 +/− 0.9
  Histopathology score (0 to 5 Scale): Inflammation: 0.4 +/− 0.9
  Histopathology score (0 to 5 Scale): Regeneration: 1 +/− 1.4
[6]; 30 mg/kg
  Histopathology score (0 to 5 Scale): Casts: 0.8 +/− 0.4
  Histopathology score (0 to 5 Scale): Dilation: 1.6 +/− 1.1
  Histopathology score (0 to 5 Scale): Inflammation: 1.8 +/− 0.8
  Histopathology score (0 to 5 Scale): Regeneration: 2.2 +/− 0.8
[6]; 100 mg/kg
  Histopathology score (0 to 5 Scale): Casts: 1.8 +/− 0.8
  Histopathology score (0 to 5 Scale): Dilation: 1.6 +/− 1.1
  Histopathology score (0 to 5 Scale): Inflammation: 2.4 +/− 0.9
  Histopathology score (0 to 5 Scale): Regeneration: 3 +/− 0.7
[7]; 10 mg/kg
  ALB, day 6: 4.0 g/dL
  ALP, day 6: 670 U/L
  ALT: 41
  ALT, day 6: 29 U/L
  AMYL, day 6: 1719 U/L
  AST, day 6: 65 U/L
  BUN, day 6: 16 mg/dL
  Body weight Day 1: 243 g
  Body weight Day 2: 256 g
  Body weight Day 3: 264 g
  Body weight Day 4: 277 g
  Body weight Day 5: 271 g
  Body weight Day 6: 291 g
  Body weight Day 7: 299 g
  Body weight Day 8: 307 g
  Body weight Day 9: 315 g
  Body weight Day 10: 327 g
  Body weight Day 11: 333 g
  Body weight Day 12: 330 g
  Body weight Day 13: 347 g
  Body weight Day 14: 352 g
  CHOL, day 6: 78 mg/dL
  Cre, day 6: 0.8 mg/dL
  GLOB, day 6: 1.8 g/dL
  GLU, day 6: 154 mg/dL
  T-PRO, day 6: 5.9 g/dL
  TBIL: 0.1
  TBIL, day 6: 0.1 mg/dL
[7]; 30 mg/kg
  ALB, day 6: 4.0 g/dL
  ALP, day 6: 583 U/L
  ALT, day 6: 32 U/L
  AMYL, day 6: 1658 U/L
  AST, day 6: 65 U/L
  BUN, day 6: 15 mg/dL
  Body weight Day 1: 250 g
  Body weight Day 2: 256 g
  Body weight Day 3: 264 g
  Body weight Day 4: 270 g
  Body weight Day 5: 280 g
  Body weight Day 6: 288 g
  Body weight Day 7: 294 g
  Body weight Day 8: 295 g
  Body weight Day 9: 307 g
  Body weight Day 10: 318 g
  Body weight Day 11: 323 g
  Body weight Day 12: 321 g
  Body weight Day 13: 321 g
  Body weight Day 14: 330 g
  CA: 11.2
  CHOL, day 6: 81 mg/dL
  Cre, day 6: 0.7 mg/dL
  GLOB, day 6: 1.8 g/dL
  GLU, day 6: 155 mg/dL
  Organ weights Heart: 1.44
  Organ weights Kidney Rt.: 2.1
  Organ weights Liver: 11.3
  Organ weights Lung: 2.96
  Organ weights Pancreas: 0.85
  Organ weights testes: 3.45
  T-PRO, day 6: 5.8 g/dL
  TBIL: 0.1
  TBIL, day 6: 0.1 mg/dL
[7]; 100 mg/kg
  ALB, day 6: 4.0 g/dL
  ALP, day 6: 596 U/L
  ALT, day 6: 36 U/L
  AMYL, day 6: 1560 U/L
  AST, day 6: 75 U/L
  BUN, day 6: 19 mg/dL
  Body weight Day 1: 246 g
  Body weight Day 2: 251 g
  Body weight Day 3: 259 g
  Body weight Day 4: 264 g
  Body weight Day 5: 268 g
  Body weight Day 6: 277 g
  Body weight Day 7: 281 g
  Body weight Day 8: 287 g
  Body weight Day 9: 280 g
  Body weight Day 10: 293 g
  Body weight Day 11: 296 g
  Body weight Day 12: 283 g
  Body weight Day 13: 296 g
  Body weight Day 14: 299 g
  CA, day 6: 10.8 mg/dL
  CHOL, day 6: 82 mg/dL
  Cre: 0.8
  Cre, day 6: 0.7 mg/dL
  GLOB, day 6: 1.6 g/dL
  GLU, day 6: 148 mg/dL
  T-PRO, day 6: 5.6 g/dL
  TBIL: 0.1
  TBIL, day 6: 0.1 mg/dL
